According to PubChem BioAssay (NCI):
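Tested at 5 concentrations; 48 h exposure; 96-well plates; endpoints linearly interpolated, else capped at highest concentration. The concentration for 50% growth inhibition is given as GI50. At the TGI there is no net growth.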

Tests used:
Assay in all cases: NCI anticancer screen, dose series, 48 h
[1] = tested on: OVCAR-3 ovarian
[2] = tested on: NCI-H226 lung
[3] = tested on: MCF7 breast
[4] = tested on: UO-31 renal
[5] = tested on: 786-0 renal
[6] = tested on: OVCAR-8 ovarian
[7] = tested on: SK-MEL-5 melanoma
[8] = tested on: EKVX NSCLC
[9] = tested on: MALME-3M melanoma
[10] = tested on: NCI/ADR-RES ovarian
[11] = tested on: IGROV1 ovarian
[12] = tested on: HT29 colon
[13] = tested on: CCRF-CEM leukemia
[14] = tested on: TK-10 renal
[15] = tested on: SF-539 CNS
[16] = tested on: HS 578T breast
[17] = tested on: LOX IMVI melanoma
[18] = tested on: DU-145 prostate
[19] = tested on: NCI-H460 lung
[20] = tested on: HCC-2998 colon
[21] = tested on: SF-268 CNS
[22] = tested on: SNB-19 CNS
[23] = tested on: HL-60(TB) leukemia
[24] = tested on: SR leukemia
[25] = tested on: PC-3 prostate
[26] = tested on: HCT-15 colon
[27] = tested on: UACC-62 melanoma
[28] = tested on: A498 renal
[29] = tested on: M14 melanoma
[30] = tested on: HOP-62 NSCLC
[31] = tested on: SN12C renal
[32] = tested on: A549 NSCLC
[33] = tested on: SK-MEL-2 melanoma
[34] = tested on: NCI-H522 lung
[35] = tested on: KM12 colon
[36] = tested on: BT-549 breast
[37] = tested on: MDA-MB-435
[38] = tested on: NCI-H23 lung
[39] = tested on: SNB-75 CNS
[40] = tested on: K-562 leukemia
[41] = tested on: U251 CNS
[42] = tested on: HCT-116 colon
[43] = tested on: SK-MEL-28 melanoma
[44] = tested on: CAKI-1 renal
[45] = tested on: ACHN renal
[46] = tested on: OVCAR-4 ovarian
[47] = tested on: MOLT-4 leukemia
[48] = tested on: UACC-257 melanoma
[49] = tested on: OVCAR-5 ovarian
[50] = tested on: RPMI-8226 leukemia
[51] = tested on: SF-295 CNS
[52] = tested on: MDA-MB-231 breast
[53] = tested on: RXF 393 renal
[54] = tested on: COLO 205 colon
[55] = tested on: SW-620 colon
[56] = tested on: SK-OV-3 ovarian
[57] = tested on: T-47D breast

Work on `O=C1c2ccccc2S(=O)(=O)N1CSC(=S)N1CCOCC1` yielded a GI50 [1] greater than 100 µM, a TGI [1] greater than 100 µM and a GI50 [2] greater than 100 µM. It also gave a TGI [2] greater than 100 µM, a GI50 [3] of 49 µM and a TGI [3] greater than 100 µM. For the same compound, the GI50 [4] was greater than 100 µM, the TGI [4] was greater than 100 µM and the GI50 [5] was greater than 100 µM. For the same compound, the TGI [5] was greater than 100 µM, the GI50 [6] was greater than 100 µM and the TGI [6] was greater than 100 µM. The GI50 [7] was 58.1 µM, the TGI [7] was greater than 100 µM and the GI50 [8] was greater than 100 µM. The TGI [8] was greater than 100 µM, the GI50 [9] was greater than 100 µM and the TGI [9] was greater than 100 µM. For the same compound, the GI50 [10] was greater than 100 µM, the TGI [10] was greater than 100 µM and the GI50 [11] was greater than 100 µM. The TGI [11] was greater than 100 µM, the GI50 [12] was 26.1 µM and the TGI [12] was greater than 100 µM. It also gave a GI50 [13] of 7.9 µM, a TGI [13] of 36.1 µM and a GI50 [14] greater than 100 µM. It also gave a TGI [14] greater than 100 µM, a GI50 [15] greater than 100 µM and a TGI [15] greater than 100 µM. The GI50 [16] was greater than 100 µM, the TGI [16] was greater than 100 µM and the GI50 [17] was greater than 100 µM. For the same compound, the TGI [17] was greater than 100 µM, the GI50 [18] was greater than 100 µM and the TGI [18] was greater than 100 µM. The GI50 [19] was 70.1 µM, the TGI [19] was greater than 100 µM and the GI50 [20] was greater than 100 µM. For the same compound, the TGI [20] was greater than 100 µM, the GI50 [21] was greater than 100 µM and the TGI [21] was greater than 100 µM. For the same compound, the GI50 [22] was greater than 100 µM, the TGI [22] was greater than 100 µM and the GI50 [23] was 4.84 µM. For the same compound, the TGI [23] was 49.9 µM, the GI50 [24] was 17.4 µM and the TGI [24] was 47 µM. It also gave a GI50 [25] of 38.3 µM, a TGI [25] greater than 100 µM and a GI50 [26] greater than 100 µM. For the same compound, the TGI [26] was greater than 100 µM, the GI50 [27] was greater than 100 µM and the TGI [27] was greater than 100 µM. The GI50 [28] was greater than 100 µM, the TGI [28] was greater than 100 µM and the GI50 [29] was 31.1 µM. The TGI [29] was 89.6 µM, the GI50 [30] was greater than 100 µM and the TGI [30] was greater than 100 µM. For the same compound, the GI50 [31] was greater than 100 µM, the TGI [31] was greater than 100 µM and the GI50 [32] was greater than 100 µM. The TGI [32] was greater than 100 µM, the GI50 [33] was greater than 100 µM and the TGI [33] was greater than 100 µM. The GI50 [34] was 24.8 µM, the TGI [34] was greater than 100 µM and the GI50 [35] was greater than 100 µM. For the same compound, the TGI [35] was greater than 100 µM, the GI50 [36] was greater than 100 µM and the TGI [36] was greater than 100 µM. For the same compound, the GI50 [37] was greater than 100 µM, the TGI [37] was greater than 100 µM and the GI50 [38] was greater than 100 µM. It also gave a TGI [38] greater than 100 µM, a GI50 [39] of 65.4 µM and a TGI [39] greater than 100 µM. It also gave a GI50 [40] greater than 100 µM, a TGI [40] greater than 100 µM and a GI50 [41] greater than 100 µM. For the same compound, the TGI [41] was greater than 100 µM, the GI50 [42] was greater than 100 µM and the TGI [42] was greater than 100 µM. It also gave a GI50 [43] of 61.8 µM, a TGI [43] greater than 100 µM and a GI50 [44] greater than 100 µM. For the same compound, the TGI [44] was greater than 100 µM, the GI50 [45] was greater than 100 µM and the TGI [45] was greater than 100 µM. For the same compound, the GI50 [46] was greater than 100 µM, the TGI [46] was greater than 100 µM and the GI50 [47] was 19 µM. For the same compound, the TGI [47] was greater than 100 µM, the GI50 [48] was greater than 100 µM and the TGI [48] was greater than 100 µM. For the same compound, the GI50 [49] was greater than 100 µM, the TGI [49] was greater than 100 µM and the GI50 [50] was 15.8 µM. It also gave a TGI [50] of 51.3 µM, a GI50 [51] greater than 100 µM and a TGI [51] greater than 100 µM. For the same compound, the GI50 [52] was greater than 100 µM, the TGI [52] was greater than 100 µM and the GI50 [53] was greater than 100 µM. It also gave a TGI [53] greater than 100 µM, a GI50 [54] of 62.4 µM and a TGI [54] greater than 100 µM. For the same compound, the GI50 [55] was 69.1 µM, the TGI [55] was greater than 100 µM and the GI50 [56] was greater than 100 µM. For the same compound, the TGI [56] was greater than 100 µM, the GI50 [57] was greater than 100 µM and the TGI [57] was greater than 100 µM.
